Cell death data for one compound are collected here from patent publication US20230040125A1, “TARGETING THE INTRINSIC APOPTOTIC MACHINERY IN GLIOBLASTOMA” (The Regents of The University Of California, priority 2019, published 2023).

Entries after “also recorded” stand apart in the source; their conditions may differ.

The assay concerns GBM lines. The experiment in a line: TMZ/IR titrated across a panel of GBM lines with a fixed dose of BCLXL inhibitor, cell death. To be noted: TMZ/IR titrated with a fixed dose of A1155463. Format: cell-based. From the text: In the triplet of histogram bars for each dosage, the left bar represents all data (TMZR/IR alone, n=17), the center bar represents p53 WT+BCLXL In. (n=12), and the right bar represents p53 mutants+BCLXL In. (n=5). […] To investigate if BCL-xL is preventing the standard of care from inducing apoptosis, TMZ/IR were titrated in across a panel of genetically diverse GBM lines (n=17) with a fixed dose of BCLXL inhibitor (A1155463).

In the case of `CN(C)CC#Cc1ccc(OCCCc2sc(N3CCc4cccc(C(=O)Nc5nc6ccccc6s5)c4C3)nc2C(=O)O)c(F)c1` [A1155463], the cell death entry is, setting by setting: (p53 mutant GBM, panel n=17 (p53 mutants n=5)) “no added benefit”; (p53 wild type GBM, panel n=17 (p53 WT n=12)) “significantly increase cell death; also recorded: increases cell death”.
